Measured values: patent publication US20130202649A1, “ACTIVATION OF INNATE IMMUNITY FOR NUCLEAR REPROGRAMMING OF SOMATIC CELLS” (The Board of Trustees of the Leland Stanford Junior …, priority 2012, published 2013)

Tests used:
[1] = tested on: heterochromatin protein 1 (HP1); test: HP1 distribution (confocal microscopy) and expression (Western); assay type: cell-based, human
Method: In addition, the changes in methylation status of the Oct4 and Sox2 promoters that were accelerated by TLR3 activation were also associated with an accelerated redistribution of heterochromatin protein 1 (HP1; FIGS. 19A and 19B). HP1 that is bound to methylated H3K9 recruits the methylase Suv39h, leading to further methylation of H3K9, so as to consolidate a repressed state. The redistribution of HP1 induced by poly I:C is consistent with genome-wide epigenetic alterations induced by TLR3 activation. Histone acetylation favors an open chromatin state, maintained by proteins containing histone acetyltransferase (HAT) domains, such as p300 and CBP. NF-κB is a transcriptional effector of TLR3 activation, and interacts with CBP/p300 to positively regulate gene expression. […] This effect was mediated by TLR3, as shRNA knockdown of TLR3 or its adaptor protein TRIF1 reduced the effect of poly I:C on NF-κB activation (FIG. 20).
Heterochromatin protein-1 (HP1) is associated with the closed conformation of chromatin. […] The fact that the current work implicated TRIF signaling likely aligns with the fact that the retrovirus RNA provides adequate TLR3 signaling to trigger NF-κB, IRF3 and IFN. While TLR3 mimicked signaling from the retrovirus vector, other TLR agonists as well as agonists for NOD-like receptors, RIG-1-like receptors, cytosolic DNA sensors and C-type lectin receptors, drive a similar inflammatory response converging on NF-κB, IRF-3 and IFNβ.
Western Blotting Proteins were extracted from BJ fibroblasts by solubilizing the cells in RIPA buffer containing 1× protease inhibitor cocktail. 25 μg of total protein was loaded and resolved on SDSpolyacrylamide gels, transferred to PVDF membranes and probed with the following primary antibodies: anti-HP1α and anti-HDAC (Cell Signaling), and β-actin (Sigma, A5441). Immunoblots were developed with enhanced chemiluminescence reagents (Amersham).

[2] = tested on: MEFs expressing a dox-inducible polycistronic transgene construct encoding the four reprogramming factors; test: Doxycycline-inducible iPSC generation from secondary MEFs; assay type: cell-based, mouse; conditions: Dox-treated MEFs
Method: To further test the hypothesis that TLR3 activation was required for efficient reprogramming, we isolated MEFs from murine embryos expressing a doxycycline (Dox)-inducible polycistronic transgene construct encoding the four reprogramming factors. To generate iPSCs, 10^5 MEFs/per well in 6-well plates were treated with Dox. In some wells, poly I:C was also added for the initial 6 days of the reprogramming process. In other wells, cells were infected with pMX-GFP on the first day of Dox treatment. Poly I:C or pMX-GFP each accelerated the expression of Oct4 and Sox2 (FIG. 6A). […] Similarly, infection with pMX-GFP seemed to accelerate colony formation, as a number of small colonies were observed by day 7 in the viral particle infected group (FIG. 16). By day 14, typical mES-like colonies appeared, many of which had activated SSEA-1. At this time point, the number of typical SSEA-1^+ colonies were increased by 7-8 fold in wells exposed to viral particles or poly I:C (FIG. 6B). Colony number increased further by day 21-28 (FIGS. 6B and 6C). […]
Doxycycline-induced iPSCs: As previously described (Wernig et al., 2008), MEFs from chimeric embryos at E13.5 were isolated. […] The generation of iPSC colonies was monitored daily and scored at days 14 and 21. […]

[3] = tested on: innate immune response genes (TLR3, NF-κB, IFN-β, Stat1, Stat2); test: Expression of innate immunity related genes; assay type: cell-based, human
Excerpt: To gain more insight into the mechanisms by which a retroviral particle could accelerate nuclear reprogramming, we substituted a non-integrating mutant of pMX-GFP by introducing a frameshift mutation near the poi coding region of the retrovirus. This mutant can enter the cell, direct synthesis of intact virus particles that retain reverse transcriptase activity, but cannot integrate newly synthesized viral DNA into the host genome. […] Accordingly, integration of foreign DNA into the host genome is not required for the difference in gene expression between the CPPs and their corresponding viral vectors. Viral infection activates innate immunity, by virtue of interaction with Toll-like receptors (TLRs). The TLRs recognize pathogen-associated molecular patterns (PAMPs) associated with viral protein, lipopolysaccharides, DNA or RNA. We hypothesized that activation of innate immunity through TLRs may be involved in the difference in gene expression. Indeed, we observed that our retroviral vectors (but not the CPPs) activated inflammatory (innate immune response) genes, including the toll-like receptor 3 (TLR3), NF-κB, IFN-β, Stat1 and Stat2 (FIG. 11).
Treatments At 60-70% confluency, BJ fibroblast cells were serum-starved using 1% serum to induce G1 cell cycle arrest. […]

## Polyinosinicpolycytidylic acid [Poly I:C]
[1]; co-administered with CPP-SOX2
  distribution of HP1: marked changes in its distribution
[1]; day 2 to day 6
  expression of HP-1α (immunoblot): unaffected
[1]; in the absence of the CPP
  distribution of HP1: no observable redistribution
[2]; 3 days
  changes in the morphology of the MEFs: accelerated changes in the morphology
[2]; poly I:C initial 6 days or pMX-GFP on first day
  expression of Oct4 and Sox2: accelerated
[3]; BJ fibroblasts
  expression of NF-κB and TLR3: sustained increase
[3]; human fibroblasts
  expression of inflammatory (innate immune response) genes: induces the expression of genes involved in innate immunity
